In patent US10098350B2, “Fungicidal amides” (E. I. DU PONT DE NEMOURS AND COMPANY, priority 2013, dated 2018):

What was measured:
Assay type in all cases: in vivo
[1] = tested on: Erysiphe graminis f. sp. tritici; experiment: Test E: wheat seedlings sprayed with test suspension, inoculated with Erysiphe graminis f. sp. tritici (wheat powdery mildew), visual disease rating
Outline: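 Wheat seedlings sprayed to run-off with compound suspension (acetone 3%, acetone/water 50/50 with 250 ppm Trem 014) at 10, 40, 50 or 200 ppm (40–800 g ai/ha), inoculated next day with spore dust. Incubated 7 or 8 days at 20° C, then rated visually as % disease control relative to controls (0–100).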

[2] = tested on: Septoria tritici; experiment: Test C: wheat seedlings sprayed with test suspension, inoculated with Septoria tritici (wheat leaf blotch), visual disease rating
Outline: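 Wheat seedlings sprayed to run-off with compound suspended in acetone/water with 250 ppm Trem 014, at 10, 40, 50 or 200 ppm (40–800 g ai/ha). Inoculated with Septoria tritici spores the next day, held 48 h saturated at 24 °C, then 21 days at 20 °C. Visual rating 0–100% disease control relative to controls.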

[3] = tested on: Puccinia recondite f. sp. tritici; experiment: Test D: wheat seedlings sprayed with test suspension, inoculated with Puccinia recondite f. sp. tritici (wheat leaf rust), visual disease rating
Outline: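 Wheat seedlings were sprayed to run-off with compound suspended in 50/50 acetone–water containing 250 ppm Trem 014, at 10-200 ppm (40-800 g ai/ha). They were inoculated with rust spores the next day, then kept 24 h saturated at 20 °C and 6 days at 20 °C. Scores are visual % disease control versus untreated controls.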

[4] = tested on: Botrytis cinerea; experiment: Test A: tomato seedlings sprayed with test suspension, inoculated with Botrytis cinerea (gray mold), visual disease rating
Excerpt: General protocol for preparing test suspensions for Tests A-E: the test compounds were first dissolved in acetone in an amount equal to 3% of the final volume and then suspended at the desired concentration (in ppm) in acetone and purified water (50/50 mix by volume) containing 250 ppm of the surfactant Trem® 014 (polyhydric alcohol esters). The resulting test suspensions were then used in Tests A-E. Samples were applied to plants at either a 10 ppm (**), 40 ppm, 50 ppm (*) or 200 ppm (#) test solution to the point of run-off on the test plants with the equivalent of a rate of 40 g ai/ha, 160 g ai/ha, 200 g ai/ha, or 800 g ai/ha, respectively.
The test suspension was sprayed to the point of run-off on tomato seedlings. The following day the seedlings were inoculated with a spore suspension of Botrytis cinerea (the causal agent of gray mold on many crops) and incubated in a saturated atmosphere at 20° C. for 48 h, and moved to a growth chamber at 27° C. for 2 days, after which time visual disease ratings were made.
Results for Tests A-E are given in Table A. In the Table, a rating of 100 indicates 100% disease control and a rating of 0 indicates no disease control (relative to the controls). A dash (-) indicates no test results.

[5] = tested on: Stagonospora nodorum (also known as Septoria nodorum); experiment: Test B: wheat seedlings sprayed with test suspension, inoculated with Stagonospora nodorum (wheat glume blotch), visual disease rating
Outline: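 Compounds in acetone/water 50/50 with 250 ppm Trem 014 were sprayed to run-off on wheat seedlings at 10, 40, 50 or 200 ppm (40–800 g ai/ha). Plants were inoculated next day, held 48 h saturated at 20 °C, then 6 days in a growth chamber at 20 °C. Visual rating 0–100% disease control relative to controls.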

[6] = Cmpd. No. marked '*' (other test rate; meaning of mark not shown)
[7] = Cmpd. No. unmarked, 100 = 100% disease control, 0 = no control relative to controls
[8] = Cmpd. No. marked '#' (other test rate; meaning of mark not shown)

| Molecule | Test E rating (% disease control) [1, 6] | Test C rating (% disease control) [2, 6] | Test D rating (% disease control) [3, 6] | Test A rating (% disease control) [4, 6] | Test B rating (% disease control) [5, 6] | Test E rating (% disease control) [1, 7] | Test C rating (% disease control) [2, 7] | Test D rating (% disease control) [3, 7] | Test A rating (% disease control) [4, 7] | Test B rating (% disease control) [5, 7] | Test E rating (% disease control) [1, 8] | Test C rating (% disease control) [2, 8] | Test D rating (% disease control) [3, 8] | Test A rating (% disease control) [4, 8] | Test B rating (% disease control) [5, 8] |
| --- | --- | --- | --- | --- | --- | --- | --- | --- | --- | --- | --- | --- | --- | --- | --- |
| Cn1cc(C(=O)N(Cc2cnc(-n3ccc(C(F)(F)F)n3)cc2Cl)C2CC2)c(C(F)(F)F)n1 [Compound 148] | 0% | 9% | 0% | 0% | 0% | – | – | – | – | – | – | – | – | – | – |
| Cn1cc(C(=O)N(Cc2cccc(-n3ccc(C(F)(F)F)n3)c2)C2CC2)c(C(F)(F)F)n1 [Compound 149] | – | – | – | – | – | 0% | 43% | 0% | 0% | 0% | – | – | – | – | – |
| Cc1nc(C(F)(F)F)c(C(=O)N(Cc2cccc(-n3ccc(C(F)(F)F)n3)c2)C2CC2)s1 [Compound 150] | – | – | – | – | – | 0% | 48% | 9% | 0% | 0% | – | – | – | – | – |
| Cc1nc(C(F)(F)F)c(C(=O)N(Cc2ccc(-n3ccc(C(F)(F)F)n3)cc2Cl)C2CC2)s1 [Compound 151] | – | – | – | – | – | 0% | 87% | 23% | 23% | 0% | – | – | – | – | – |
| Cc1ccsc1C(=O)N(Cc1cccc(-n2ccc(C(F)(F)F)n2)c1)C1CC1 [Compound 152] | – | – | – | – | – | 0% | 0% | 0% | 0% | 0% | – | – | – | – | – |
| Cn1cc(C(=O)N(Cc2ccc(-n3ccc(Cl)n3)cn2)C2CC2)c(C(F)F)n1 [compound 5] | – | – | – | – | – | 0% | 17% | 0% | 0% | 0% | 0% | 80% | 28% | 0% | 0% |
| Cn1cc(C(=O)N(Cc2ccc(-n3cc(Cl)cn3)cn2)C2CC2)c(C(F)F)n1 [compound 6] | – | – | – | – | – | 0% | 9% | 0% | 0% | 0% | 13% | 67% | 28% | 0% | 98% |
| Cn1cc(C(=O)N(Cc2ccc(-n3ccc(-c4ccccc4)n3)cn2)C2CC2)c(C(F)F)n1 [compound 8] | – | – | – | – | – | 0% | 27% | 0% | 0% | 0% | 0% | 88% | 74% | 0% | 0% |
| Cn1cc(C(=O)N(Cc2ccc(-n3ccc(C(F)(F)F)n3)cc2Cl)C2CC2)c(C(F)F)n1 [compound 11] | – | – | – | – | – | 43% | 100% | 54% | 0% | 89% | – | – | – | – | – |
| Cn1cc(C(=O)N(Cc2cc(-n3ccc(C(F)(F)F)n3)ccc2[N+](=O)[O-])C2CC2)c(C(F)F)n1 [compound 13] | – | – | – | – | – | 0% | 0% | 32% | 0% | 0% | – | – | – | – | – |
| COc1ccc(-n2ccc(C(F)(F)F)n2)cc1CN(C(=O)c1cn(C)nc1C(F)F)C1CC1 [compound 14] | – | – | – | – | – | 92% | 83% | 32% | 0% | 42% | – | – | – | – | – |
| CC(c1ncc(-n2ccc(C(F)(F)F)n2)cc1Cl)N(C(=O)c1cn(C)nc1C(F)F)C1CC1 (stereo not shown) [compound 17] | – | – | – | – | – | 92% | 99% | 23% | 0% | 100% | – | – | – | – | – |
| CC(c1ccc(-n2ccc(C(F)(F)F)n2)cc1Cl)N(C(=O)c1cn(C)nc1C(F)F)C1CC1 (stereo not shown) [compound 19] | – | – | – | – | – | 64% | 75% | 85% | 0% | 99% | – | – | – | – | – |
| Cn1cc(C(=O)N(Cc2ccc(-n3cc(Cl)cn3)cc2Cl)C2CC2)c(C(F)F)n1 [compound 20] | – | – | – | – | – | 40% | 94% | 79% | 32% | 99% | – | – | – | – | – |
| Cc1ccc(CN(C(=O)c2cn(C)nc2C(F)F)C2CC2)cc1-n1ccc(C(F)(F)F)n1 [compound 27] | – | – | – | – | – | 21% | 38% | 31% | 0% | 92% | – | – | – | – | – |
| Cc1ccc(-n2ccc(C(F)(F)F)n2)cc1CN(C(=O)c1cn(C)nc1C(F)F)C1CC1 [compound 28] | – | – | – | – | – | 59% | 45% | 45% | 11% | 99% | – | – | – | – | – |
| Cc1cc(-n2ccc(C(F)(F)F)n2)cc(CN(C(=O)c2cn(C)nc2C(F)F)C2CC2)c1F [compound 29] | – | – | – | – | – | 48% | 83% | 68% | 0% | 94% | – | – | – | – | – |
| Cn1cc(C(=O)N(Cc2cc(-n3ccc(C(F)(F)F)n3)ccc2Cl)C2CC2)c(C(F)F)n1 [compound 30] | – | – | – | – | – | 64% | 87% | 31% | 0% | 60% | – | – | – | – | – |
| Cn1nc(C(F)F)c(C(=O)N(Cc2ccc(-n3cc(Br)cn3)cc2Cl)C2CC2)c1Cl [compound 31] | – | – | – | – | – | 0% | 42% | 98% | 0% | 0% | – | – | – | – | – |
| Cn1nc(C(F)F)c(C(=O)N(Cc2ccc(-n3cc(Br)cn3)cc2Cl)C2CC2)c1F [compound 34] | – | – | – | – | – | 95% | 94% | 100% | 23% | 100% | – | – | – | – | – |
| Cn1cc(C(=O)N(Cc2cccc(-n3ccc(C(F)(F)F)n3)c2C(F)(F)F)C2CC2)c(C(F)F)n1 [compound 41] | – | – | – | – | – | 40% | 94% | 23% | 0% | 0% | – | – | – | – | – |
| N-cyclopropyl-3-(difluoromethyl)-1-methyl-N-[[3-[3-(trifluoromethyl)-1H-pyrazol-1-yl]phenyl]methyl]-1H-pyrazole-4-carboxamide [Compound 9] | – | – | – | – | – | 0% | 43% | 0% | 0% | 0% | 43% | 96% | 0% | 0% | 0% |
